How the values were obtained:
[1] = tested on: oxazolone-induced animal model of atopic dermatitis; test: oxazolone-induced animal model of atopic dermatitis in mice; assay type: in vivo, mice (Balb/c)
Method: An animal model of atopic dermatitis was induced in mice (Balb/c) by the use of oxazolone. With the first sensitization day of oxazolone set as day 0, it was administered orally or transdermally starting on day 7 once a day. When the date of application of oxazolone and the date of administration of the drug were overlapped, the drug was administered about 6 hours after application of oxazolone.
For all mice, abdominal hair was removed one day before the first application of oxazolone. Then, 1% or 0.2% oxazolone was prepared by the use of a 4:1 ratio of acetone/corn oil, and sensitization and induction on the shaved mouse abdomen and both ears were performed with the same dose and schedule as represented in Table 1 and FIG. 1.
The test substances (the Test Compound and dexamethasone as a positive control) were prepared for each administration dose as represented in Table 2 below by the use of 0.5% methyl cellulose. In the case of the Test Compound, it was prepared in consideration of the HCl salt form. The test substances were dissolved in 0.5% methyl cellulose and then sonicated.
The test substances were prepared by dissolving them at the concentration of 0.1% (w/v) in a solution (PEG400:100% ethanol=1:1). 5 mL of PEG400 was added to 10 mg of the test substances and sonicated. When they were dissolved to some extent, 5 mL of 100% ethanol was added thereto and sonicated to dissolve them completely. In addition, the vehicle and the test substances were prepared fresh every day and used.

[2] = tested on: oxazolone-induced animal model of atopic dermatitis; test: as above; assay type: in vivo, mice (Balb/c); details: Example 4, Table 3; for Therapeutic effect (Compared to disease-induced group): Ear thickness (Day 21 after administration): reduction in ear thickness
[3] = Example 4, Table 3, oral administration 1 mg/kg once a day, reduction in ear thickness
[4] = Example 4, Table 3, oral administration 1 mg/kg once a day, reduction in ear weight after autopsy
[5] = Example 4, Table 3, oral administration 1 mg/kg once a day, reduction in epidermal thickness
[6] = Example 4, Table 3, oral administration 1 mg/kg once a day, reduction in the blood level of IgE
[7] = Example 5 comparative experimentation, Table 4, oral administration 0.1 mg/kg
[8] = Example 5 comparative experimentation, Table 4, oral administration 0.3 mg/kg
[9] = Example 5 comparative experimentation, Table 4, oral administration 1 mg/kg
[10] = Example 5 comparative experimentation, Table 4, oral administration 1 mg/kg, blood level of IgE

## C[C@@H]1C[C@H]2[C@@H]3CCC4=CC(=O)C=C[C@]4(C)[C@@]3(F)[C@@H](O)C[C@]2(C)[C@@]1(O)C(=O)CO [Dexamethasone, dexamethasone, reference compound]
[1]; [3]
  Therapeutic effect (Compared to disease-induced group): Ear thickness (Day 21 after administration): 66%
[1]; [4]
  Therapeutic effect (Compared to disease-induced group): Ear weight (Day 21 after administration): 54%
[1]; [5]
  Therapeutic effect (Compared to disease-induced group): Epidermal thickness of ear tissue (Day 21 after administration): 55%
[1]; [6]
  Therapeutic effect (Compared to disease-induced group): IgE (Day 21 after administration): 12%

## CC(C)n1nc(Cl)c2cc(COc3ccc4c(c3)CCC(CN3CCC(C(=O)O)CC3)=C4Cl)ccc21 [Test Compound, 1-[1-Chloro-6-(3-chloro-1-isopropyl-1H-indazol-5-ylmethoxy)-3,4-dihydro-naphthalen-2-ylmethyl]-piperidine-4-carboxylic acid]
[1]; Example 4, Table 3, oral administration 0.1 mg/kg once a day, reduction in ear thickness
  Therapeutic effect (Compared to disease-induced group): Ear thickness (Day 21 after administration): 37%
[1]; Example 4, Table 3, oral administration 0.1 mg/kg once a day, reduction in ear weight after autopsy
  Therapeutic effect (Compared to disease-induced group): Ear weight (Day 21 after administration): −2%
[1]; Example 4, Table 3, oral administration 0.1 mg/kg once a day, reduction in epidermal thickness
  Therapeutic effect (Compared to disease-induced group): Epidermal thickness of ear tissue (Day 21 after administration): 25%
[1]; Example 4, Table 3, oral administration 0.1 mg/kg once a day, reduction in mast cell accumulation, ear tissue
  Therapeutic effect (Compared to disease-induced group): Mast cell accumulation (Day 21 after administration): 21%
[1]; Example 4, Table 3, oral administration 0.1 mg/kg once a day, reduction in the blood level of IgE
  Therapeutic effect (Compared to disease-induced group): IgE (Day 21 after administration): −56%
[1]; Example 4, Table 3, oral administration 0.3 mg/kg once a day, reduction in ear thickness
  Therapeutic effect (Compared to disease-induced group): Ear thickness (Day 21 after administration): 63%
[1]; Example 4, Table 3, oral administration 0.3 mg/kg once a day, reduction in ear weight after autopsy
  Therapeutic effect (Compared to disease-induced group): Ear weight (Day 21 after administration): 48%
[1]; Example 4, Table 3, oral administration 0.3 mg/kg once a day, reduction in epidermal thickness
  Therapeutic effect (Compared to disease-induced group): Epidermal thickness of ear tissue (Day 21 after administration): 56%
[1]; Example 4, Table 3, oral administration 0.3 mg/kg once a day, reduction in mast cell accumulation, ear tissue
  Therapeutic effect (Compared to disease-induced group): Mast cell accumulation (Day 21 after administration): 34%
[1]; Example 4, Table 3, oral administration 0.3 mg/kg once a day, reduction in the blood level of IgE
  Therapeutic effect (Compared to disease-induced group): IgE (Day 21 after administration): 38%
[1]; [3]
  Therapeutic effect (Compared to disease-induced group): Ear thickness (Day 21 after administration): 61%
[1]; [4]
  Therapeutic effect (Compared to disease-induced group): Ear weight (Day 21 after administration): 53%
[1]; [5]
  Therapeutic effect (Compared to disease-induced group): Epidermal thickness of ear tissue (Day 21 after administration): 61%
[1]; Example 4, Table 3, oral administration 1 mg/kg once a day, reduction in mast cell accumulation, ear tissue
  Therapeutic effect (Compared to disease-induced group): Mast cell accumulation (Day 21 after administration): 29%
[1]; [6]
  Therapeutic effect (Compared to disease-induced group): IgE (Day 21 after administration): 44%
[1]; Example 4, Table 3, topical administration 0.01% once a day, reduction in ear weight after autopsy
  Therapeutic effect (Compared to disease-induced group): Ear weight (Day 21 after administration): 65%
[1]; Example 4, Table 3, topical administration 0.01% once a day, reduction in mast cell accumulation, ear tissue
  Therapeutic effect (Compared to disease-induced group): Mast cell accumulation (Day 21 after administration): 42%
[1]; Example 4, Table 3, topical administration 0.01% once a day, reduction in the blood level of IgE
  Therapeutic effect (Compared to disease-induced group): IgE (Day 21 after administration): 43%
[1]; Example 4, Table 3, topical administration 0.03% once a day, reduction in ear weight after autopsy
  Therapeutic effect (Compared to disease-induced group): Ear weight (Day 21 after administration): 72%
[1]; Example 4, Table 3, topical administration 0.03% once a day, reduction in epidermal thickness
  Therapeutic effect (Compared to disease-induced group): Epidermal thickness of ear tissue (Day 21 after administration): 55%
[1]; Example 4, Table 3, topical administration 0.03% once a day, reduction in mast cell accumulation, ear tissue
  Therapeutic effect (Compared to disease-induced group): Mast cell accumulation (Day 21 after administration): 59%
[1]; Example 4, Table 3, topical administration 0.1% once a day, reduction in ear thickness
  Therapeutic effect (Compared to disease-induced group): Ear thickness (Day 21 after administration): 69%
[1]; Example 4, Table 3, topical administration 0.1% once a day, reduction in ear weight after autopsy
  Therapeutic effect (Compared to disease-induced group): Ear weight (Day 21 after administration): 69%
[1]; Example 4, Table 3, topical administration 0.1% once a day, reduction in epidermal thickness
  Therapeutic effect (Compared to disease-induced group): Epidermal thickness of ear tissue (Day 21 after administration): 58%
[1]; Example 4, Table 3, topical administration 0.1% once a day, reduction in mast cell accumulation, ear tissue
  Therapeutic effect (Compared to disease-induced group): Mast cell accumulation (Day 21 after administration): 70%
[1]; Example 4, Table 3, topical administration 0.1% once a day, reduction in the blood level of IgE
  Therapeutic effect (Compared to disease-induced group): IgE (Day 21 after administration): 71%
[1]; Example 4, summary of Table 3 and FIGS. 2 to 6
  overall effect in the oxazolone-induced animal model of atopic dermatitis versus positive control: superior effect in a dose-dependent manner compared to dexamethasone
[1]; Example 5, summary of Table 4 and FIG. 7
  overall effect in the animal model of atopic dermatitis versus comparative compound: equal or superior effects even at lower doses compared to the comparative compound, etrasimod
[1]; [7]
  Therapeutic effect (Compared to disease-induced group): Ear thickness (Day 21 after administration): 14%
  Therapeutic effect (Compared to disease-induced group): Ear weight (Day 21 after administration): 31%
  Therapeutic effect (Compared to disease-induced group): Epidermal thickness of ear tissue (Day 21 after administration): 21%
  Therapeutic effect (Compared to disease-induced group): Mast cell accumulation (Day 21 after administration): 27%
[1]; Example 5 comparative experimentation, Table 4, oral administration 0.1 mg/kg, blood level of IgE
  Therapeutic effect (Compared to disease-induced group): IgE (Day 21 after administration): 31%
[1]; [8]
  Therapeutic effect (Compared to disease-induced group): Ear thickness (Day 21 after administration): 29%
  Therapeutic effect (Compared to disease-induced group): Ear weight (Day 21 after administration): 55%
  Therapeutic effect (Compared to disease-induced group): Epidermal thickness of ear tissue (Day 21 after administration): 42%
  Therapeutic effect (Compared to disease-induced group): Mast cell accumulation (Day 21 after administration): 35%
[1]; Example 5 comparative experimentation, Table 4, oral administration 0.3 mg/kg, blood level of IgE
  Therapeutic effect (Compared to disease-induced group): IgE (Day 21 after administration): 46%
[1]; [9]
  Therapeutic effect (Compared to disease-induced group): Ear thickness (Day 21 after administration): 42%
  Therapeutic effect (Compared to disease-induced group): Ear weight (Day 21 after administration): 69%
  Therapeutic effect (Compared to disease-induced group): Epidermal thickness of ear tissue (Day 21 after administration): 44%
  Therapeutic effect (Compared to disease-induced group): Mast cell accumulation (Day 21 after administration): 43%
[1]; [10]
  Therapeutic effect (Compared to disease-induced group): IgE (Day 21 after administration): 72%
[2]; topical administration 0.01% once a day
  Therapeutic effect (Compared to disease-induced group): Ear thickness (Day 21 after administration): 63%
[2]; topical administration 0.01% once a day, reduction in epidermal thickness
  Therapeutic effect (Compared to disease-induced group): Epidermal thickness of ear tissue (Day 21 after administration): 26%
[2]; topical administration 0.03% once a day
  Therapeutic effect (Compared to disease-induced group): Ear thickness (Day 21 after administration): 71%
[2]; topical administration 0.03% once a day, reduction in the blood level of IgE
  Therapeutic effect (Compared to disease-induced group): IgE (Day 21 after administration): 74%

## O=C(O)C[C@H]1CCc2c1[nH]c1ccc(OCc3ccc(C4CCCC4)c(C(F)(F)F)c3)cc21 [etrasimod, 2-[(3R)-7-[[4-cyclopentyl-3-(trifluoromethyl)phenyl]methoxy]-1,2,3,4-tetrahydrocyclopenta[b]indol-3-yl] acetic acid, reference compound]
[1]; [9]
  Therapeutic effect (Compared to disease-induced group): Ear thickness (Day 21 after administration): 32%
  Therapeutic effect (Compared to disease-induced group): Ear weight (Day 21 after administration): 50%
  Therapeutic effect (Compared to disease-induced group): Epidermal thickness of ear tissue (Day 21 after administration): 36%
  Therapeutic effect (Compared to disease-induced group): Mast cell accumulation (Day 21 after administration): 28%
[1]; [10]
  Therapeutic effect (Compared to disease-induced group): IgE (Day 21 after administration): 47%

— patent US20230330077A1, “USE OF SPHINGOSINE-1-PHOSPHATE RECEPTOR AGONIST” (LG CHEM, LTD., priority 2020, published 2023)
